Data from US7928060B2, “Amylin family polypeptide-6 (AFP-6) analogs and methods of making and using them” (Amylin Pharmaceuticals, Inc., priority 2004, dated 2011).
Read-outs that look alike come from different tables or passages of the source.

Key:
[1] = target: T1, calcitonin receptor (Homo sapiens, UniProt P30988); assay: cAMP production in T47D cells (AlphaScreen)
T1 sequence (P30988 25-474): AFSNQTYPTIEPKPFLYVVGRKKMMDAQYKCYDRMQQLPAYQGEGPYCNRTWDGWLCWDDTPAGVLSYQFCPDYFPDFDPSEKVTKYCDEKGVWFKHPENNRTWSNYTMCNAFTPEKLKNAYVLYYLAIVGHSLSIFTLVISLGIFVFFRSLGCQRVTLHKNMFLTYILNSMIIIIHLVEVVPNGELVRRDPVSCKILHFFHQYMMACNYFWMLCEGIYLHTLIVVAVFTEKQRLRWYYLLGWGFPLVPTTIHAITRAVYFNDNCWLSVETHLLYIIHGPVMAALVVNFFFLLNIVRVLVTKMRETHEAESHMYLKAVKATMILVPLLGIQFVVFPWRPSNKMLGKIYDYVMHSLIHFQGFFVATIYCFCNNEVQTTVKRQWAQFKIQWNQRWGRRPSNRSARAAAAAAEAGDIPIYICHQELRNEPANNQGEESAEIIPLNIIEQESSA
From the text: Data from three exemplary independent alpha screen assays are summarized with EC50 values calculated in PRISM.

[2] = test system: calcitonin receptor; assay: cAMP production in CHO cells (AlphaScreen); type: cell-based; conditions: for EC50: CHO, 30,000 cells/well
[3] = test system: Sprague-Dawley rats; assay: 1-week continuous subcutaneous infusion in high fat-fed rats: food intake and body weight; type: in vivo, rat; conditions: 75 nmol/kg/day
From the text: Individually housed male Sprague-Dawley® rats (beginning weight=310 g; 12-h light/dark cycle) were maintained on a high fat (HF) diet (Research Diet 58% kcal from fat). Rats were fattened for 34 days. At the end of the fattening period, 7-day osmotic pumps (Durect Corp.) were implanted interscapularly under anesthesia (body weight at time of implant=403 g). The rats received pumps delivering compound or vehicle (50% DMSO). The following compounds were examined at a 75 nmol/kg/day dose: AFP-6, and an AFP-6 analog SEQ ID NO:32. Food intake and body weight measurements were obtained on day 2 and day 7. Group differences were analyzed using analysis of variance (ANOVA) and Fisher's Least-Significant Difference test.

[4] = test system: NIH/Swiss mice; assay: acute food intake assay in overnight-fasted mice, IP injection; type: in vivo, mouse
Method: The effect of AFP-6 on food intake was investigated using an acute food intake assay. This assay measured food consumption in lean, group-housed, overnight-fasted NIH/Swiss mice. 12 mice were housed 3 to a cage. The sample compound, in this case AFP-6, was injected IP in mice and food intake was measured during the next 2-hours. Decreased, as well as increased, food intake can be measured. Testing various doses of the compound generated ED50's. The assay was performed as follows: 1. Remove food (water ad libitum) at 5:00 pm the evening before the study. 2. Weigh food pellets (3 pellets/cage). 3. Inject animals intraperitoneally with 200 ul of appropriate solution, t=0. 4. Immediately add pre-weighed food to each cage (away from water bottle spout) and allow animals to feed undisturbed. 5. At 30, 60, and 120 minutes, collect and weigh food. 6. Analyze data. Data points represent mean ±sd of n=12.
Twelve mice were injected IP at t=0 for each dose, 0.3, 1, 3, 10, 30, 100, or 300 nmol/kg of AFP-6 (Amylin Pharmaceuticals, Inc.) (n=12/group). Food was introduced immediately after injection and amount consumed measured at t=30, 60, and 120 min.

[5] = test system: Harlan Sprague Dawley rats; assay: gastric emptying rate in conscious rats (3H-glucose gavage); type: in vivo, rat; conditions: subcutaneous
Method: Male Harlan Sprague Dawley® rats, 237-317 g, were housed with a 12:12 hour light:dark cycle. The experiment was carried out during the light cycle. At time=0 min, test peptide (amylin or AFP-6) at 6.3, 20, 63, 200, 632, and 1122 μg/kg or vehicle was injected (subcutaneous) into conscious rats (n=6/group). At t=5 min, a solution of 1 mL sterile water containing 5 μCi D-[3-^3H] glucose was gavaged by oropharyngeal tube to conscious rats. Blood samples were collected 30 min after gavage and assayed for counts per minute (CPM) in plasma. 20% benzocaine liquid topical anesthetic was used to eliminate pain during sampling. (Gedulin et al. (1995) Gastroenterology 108:A604). The appearance of counts in plasma is a reflection of the rate of gastric emptying. Significance of difference (p<0.05) was determined by ANOVA.

[6] = target: T2, CGRP receptors (Homo sapiens, UniProt O60894+Q16602); assay: CGRP radioligand binding assay (125I-hCGRP, SK-N-MC cell membranes); conditions: FIG. 11
T2 construct: membranes prepared from SK-N-MC cells, known to express CGRP receptors; endogenous in cells; host or cells: SK-N-MC cell membranes
T2 sequence (Q16602 23-461): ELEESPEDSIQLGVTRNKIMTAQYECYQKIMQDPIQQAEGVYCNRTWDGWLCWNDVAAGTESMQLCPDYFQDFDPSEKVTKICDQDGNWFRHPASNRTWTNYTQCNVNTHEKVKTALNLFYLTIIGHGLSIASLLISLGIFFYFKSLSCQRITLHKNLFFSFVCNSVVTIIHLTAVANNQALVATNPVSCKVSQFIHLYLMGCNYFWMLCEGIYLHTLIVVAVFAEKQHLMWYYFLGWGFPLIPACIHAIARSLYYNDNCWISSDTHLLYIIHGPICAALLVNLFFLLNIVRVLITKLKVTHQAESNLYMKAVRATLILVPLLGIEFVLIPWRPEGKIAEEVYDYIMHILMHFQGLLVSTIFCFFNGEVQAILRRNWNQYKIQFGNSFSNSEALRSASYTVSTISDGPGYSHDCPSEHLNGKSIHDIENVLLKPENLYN
T2 sequence (O60894 27-148): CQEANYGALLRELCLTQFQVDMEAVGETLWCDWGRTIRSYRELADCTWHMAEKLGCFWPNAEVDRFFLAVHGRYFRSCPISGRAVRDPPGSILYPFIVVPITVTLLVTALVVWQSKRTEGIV

CSCC[C@H](NC(=O)[C@H](CC(C)C)NC(=O)[C@H](CCC(N)=O)NC(=O)[C@H](Cc1c[nH]c2ccccc12)NC(=O)[C@H](CC(C)C)NC(=O)[C@H](CCCNC(=N)N)NC(=O)[C@H](Cc1c[nH]cn1)NC(=O)[C@H](CO)NC(=O)[C@H](CC(C)C)NC(=O)[C@H](CC(N)=O)NC(=O)[C@H](CCC(N)=O)NC(=O)[C@@H](NC(=O)[C@H](CCC(N)=O)NC(=O)[C@@H]1CSSC[C@H](NC(=O)CNC(=O)[C@@H](NC(=O)[C@H](CCCNC(=N)N)NC(=O)[C@H](CC(C)C)NC(=O)[C@H](CC(C)C)NC(=O)[C@H](CCC(N)=O)NC(=O)[C@H](C)NC(=O)[C@H](CCC(N)=O)NC(=O)[C@@H](N)[C@@H](C)O)C(C)C)C(=O)N[C@@H](C(C)C)C(=O)N[C@@H](CC(C)C)C(=O)NCC(=O)N[C@@H]([C@@H](C)O)C(=O)N1)C(C)C)C(=O)NCC(=O)N1CCC[C@H]1C(=O)N[C@@H](C)C(=O)NCC(=O)N[C@@H](CCCNC(=N)N)C(=O)N[C@@H](CCC(N)=O)C(=O)N[C@@H](CC(=O)O)C(=O)N[C@@H](CO)C(=O)N[C@@H](C)C(=O)N1CCC[C@H]1C(=O)N[C@H](C(=O)N[C@@H](CC(=O)O)C(=O)N1CCC[C@H]1C(=O)N[C@@H](CO)C(=O)N[C@@H](CO)C(=O)N1CCC[C@H]1C(=O)N[C@@H](Cc1c[nH]cn1)C(=O)N[C@@H](CO)C(=O)N[C@@H](Cc1ccc(O)cc1)C(N)=O)C(C)C [SEQ ID NO: 1]
rank order of potency, T47D cells [1]: calcitonin>amylin >AFP-6=hCGRP alpha>adrenomedullin | EC50 ([2]; average of three experiments, read-out: Average EC50): 9.63 nM | EC50 ([2]; read-out: Experiment 1 EC50): 11.3 nM | EC50 ([2]; read-out: Experiment 2 EC50): 10.6 nM | EC50 ([2]; read-out: Experiment 3 EC50): 7 nM | rank order of potency in CHO cells ([2]; cAMP, FIG. 9): AFP-6>adrenomedullin=CGRP alpha | rank order of potency, CHO cell experiments ([2]; cAMP, panel of related peptides): calcitonin >AFP-6>amylin >hCGRP alpha>adrenomedullin | body weight gain compared to Vehicle ([3]; Day 7): significantly less body weight gain than Vehicle | percent body weight loss (vehicle-corrected) ([3]; Day 7): 3.2% | food intake compared to Vehicle ([3]; after 2 days of treatment): significantly reduced food intake | inhibition of food intake ([4]; 1 mg/kg IP, mice): 91% | ED50, short-term food intake ([4]; 60 min time point, 0.3-300 nmol/kg IP, non-linear regression): 19 nmol/kg | FI 30 min ED50 ([4]; food intake, 30 min): 9 to 14 nmol/kg | FI 60 min ED50 ([4]; food intake, 60 min): 14 to 19 nmol/kg | ED50, inhibition of gastric emptying [5]: 0.049 mg/kg | rank order, displacement of CGRP [6]: CGRP >adrenomedullin >AFP-6 >amylin>>calcitonin
